The test system of data set [1] is catechol-O-methyltransferase. As to conditions: background statement; cited from earlier work.
For data set [2] the following is noted: background statement; cited from earlier work.
The nature of data set [3]: dobutamine plasma levels in anesthetized rats after intravenous bolus and intranasal saline solution. In kind it is in vivo. The settings on record: rat. Here is the method: According to the present invention, it has been unexpectedly discovered that a catecholamine can be formulated for nasal administration and upon administration achieve equivalent bioavailability as compared to intravenous administration. The purpose of the following study is to examine the bioavailability of the catecholamine dobutamine when administered intranasally and intravenously.
Six male rats weighing 280 g were anesthetized with sodium pentobarbital (50 mg/kg I.P.). Three rats were dosed intravenously with dobutamine hydrochloride at 2.5 mg/kg. Blood samples were taken at 0.5, 2, 4, 6, 10, 15, 20 and 30 minutes for dobutamine plasma analysis. The three remaining rats received dobutamine at 2.5 mg/kg intranasally in a saline solution. Blood samples from these rats were taken at 1, 5, 10, 20, 30, 60 and 120 minutes.
As is known, the one time intravenous administration of dobutamine hydrochloride at 2.5 mg/kg produced a very high dobutamine blood level (greater than 1000 ng/ml) within 30 seconds after administration. The duration of dobutamine in the blood as a result of this method of administration was brief however, lasting only for a period of approximately 30 minutes. For comparison, 1.456 mg of dobutamine hydrochloride was dissolved in 0.2 ml of saline solution and 0.1 ml of this solution was administered intranasally to a 291 g rat to provide a dose of 2.5 mg/kg. […] The intranasal delivery of dobutamine produced a moderate dobutamine blood level of 100 ng/ml after 20 minutes.
The area under the curve (AUC) was calculated with computer assistance employing the trapezoidal method for each route of administration.

Where a name gives a salt, the structure may show the parent alone.

Consider `CC(CCc1ccc(O)cc1)NCCc1ccc(O)c(O)c1` (racemic) [dobutamine, (+,-) 4-[2-[[3-(p-hydroxyphenyl)-1-methylpropyl]amino]ethyl]pyrocatechol], for which the “biotransformation by catechol-O-methyltransferase” value in data set [1] is given as “very rapidly biotransformed”. Moreover, the “half-life in the body” value in data set [2] was 2 min.

The term AUC denotes the area under the concentration-time curve, a measure of exposure. For `CC(CCc1ccc(O)cc1)NCCc1ccc(O)c(O)c1` (centres unmarked) [dobutamine hydrochloride], the concentration at 20 min in data set [3] (blood, intranasal saline solution 2.5 mg/kg, after 20 minutes, read-out: dobutamine blood level) was 100 ng/mL. The concentration at 0.5 min in data set [3] (blood, intravenous bolus 2.5 mg/kg, within 30 seconds after administration, average of three, read-out: dobutamine blood level) was greater than 1000 ng/mL. The exposure (AUC) at 0.5 h in data set [3] (plasma, IV bolus 2.5 mg/kg, trapezoidal method, sampled 0.5-30 minutes, read-out: Area Under the Curve (AUC) (converted)) is 37.1 ng·h/mL. Besides, the area under the curve (AUC) at 2 h in data set [3] (plasma, intranasal saline solution 2.5 mg/kg, trapezoidal method, sampled 1-120 minutes, read-out: Area Under the Curve (AUC) (converted)) was 188 ng·h/mL. Besides, the “persistence of effective blood level” value in data set [3] (intranasal saline solution 2.5 mg/kg, after two hours) was “effective blood level remained after two hours”. Further, the “duration of dobutamine in the blood” value in data set [3] (intravenous bolus 2.5 mg/kg) is given as “approximately 30 minutes”.
